Source: patent US20230158098A1, “COMPOSITION FOR PROMOTING ENERGY EXPENDITURE” (MORINAGA MILK INDUSTRY CO., LTD., priority 2017, published 2023)

System: Male C57BL/6J mice
Assay: Energy expenditure by indirect calorimetry, administration at rest 2
Assay type: in vivo
Conditions: mice fasted 1 hour, oral, hydrolysates 1.0 mg/g body weight, MKP peptide 0.4 μg/g body weight, randomized crossover, FIG. 3
Description: Male C57BL/6J mice as laboratory animals were divided into the following four groups: rest group, casein hydrolysate administration group, MKP peptide administration group, and whey protein hydrolysate administration group. The mice were fasted for 1 hour. Subsequently, a casein hydrolysate and a whey protein hydrolysate each in an amount of 1.0 mg/g body weight and a MKP peptide in an amount of 0.4 μg/g body weight were orally administered, and energy expenditure was measured. The number of mice used in the experiment was n=12 in each group, and a randomized crossover test was employed.
Incidentally, as the casein hydrolysate and the whey protein hydrolysate, those prepared in <1>, (1) to (2), above were used, and, as the MKP peptide, a synthetic peptide was purchased from Peptide Institute and used. Energy expenditure for 60 minutes after administration was determined.
As compared with the rest group, in all the casein hydrolysate administration group, MKP peptide administration group, and whey protein hydrolysate administration group, the level of energy expenditure was higher.

H-Met-Lys-Pro-OH [MKP peptide]
average energy expenditure for 60 minutes after administration compared with the rest group: higher
